Reference: US20220088016A1, “CANCER TREATMENT USING MULTI-TARGETED KINASE INHIBITOR IN COMBINATION OF PROTEIN KINASE BIOMARKERS” (ZHEJIANG CROWNMAB BIOTECH CO. LTD., priority 2019, published 2022)

Assays:
Assay in all cases: Kinase profiling
Format in all cases: binding
Conditions in all cases: read-out: % Ctrl @ 1000 nM
[1] = biological target: ABL1 (Q252H)-nonphosphorylated (Homo sapiens, UniProt P00519, Q252H)
MAP3K4 = MAP3K4 (Homo sapiens, UniProt Q9Y6R4)
DYRK1B = DYRK1B (Homo sapiens, UniProt Q9Y463)
FGFR4 = FGFR4 (Homo sapiens, UniProt P22455)
QSK = QSK (Homo sapiens, UniProt Q9Y2K2)
MINK = biological target: T1, MINK (Homo sapiens, UniProt Q8N4C8)
T1 construct: T7 phage fusion (stated for most kinases of the panel only); made in house; host or cells: T7 phage in E. coli (BL21-derived) or HEK-293 cells

MET (Y1235D) = biological target: T2, MET (Y1235D) (Homo sapiens, UniProt P08581, Y1235D)
T2 construct: T7 phage fusion (stated for most kinases of the panel only); made in house; host or cells: T7 phage in E. coli (BL21-derived) or HEK-293 cells

MKK7 = biological target: T3, MKK7 (Homo sapiens, UniProt O14733)
T3 construct: T7 phage fusion (stated for most kinases of the panel only); made in house; host or cells: T7 phage in E. coli (BL21-derived) or HEK-293 cells

ERBB3 = ERBB3 (Homo sapiens, UniProt P21860)
MEK5 = biological target: T4, MEK5 (Homo sapiens, UniProt Q13163)
T4 construct: T7 phage fusion (stated for most kinases of the panel only); made in house; host or cells: T7 phage in E. coli (BL21-derived) or HEK-293 cells

HIPK1 = HIPK1 (Homo sapiens, UniProt Q86Z02)
EIF2AK1 = EIF2AK1 (Homo sapiens, UniProt Q9BQI3)
MAK = MAK (Homo sapiens, UniProt P20794)
CAMK1 = CAMK1 (Homo sapiens, UniProt Q14012)
PKMYT1 = PKMYT1 (Homo sapiens, UniProt Q99640)
BLK = BLK (Homo sapiens, UniProt P51451)
[2] = biological target: RPS6KA4 (Kin.Dom.1-N-terminal) (Homo sapiens, UniProt O75676)
CAMK1D = CAMK1D (Homo sapiens, UniProt Q8IU85)
CAMK1B = CAMK1B (Homo sapiens, UniProt Q6P2M8)
EPHA1 = EPHA1 (Homo sapiens, UniProt P21709)
SBK1 = SBK1 (Homo sapiens, UniProt Q52WX2)
S6K1 = S6K1 (Homo sapiens, UniProt P23443)
IGF1R = IGF1R (Homo sapiens, UniProt P08069)
PIK3CA (M1043I) = PIK3CA (M1043I) (Homo sapiens, UniProt P42336, M1043I)
AMPK-alpha1 = AMPK-alpha1 (Homo sapiens, UniProt Q13131)
PDGFRB = PDGFRB (Homo sapiens, UniProt P09619)
CSNK1D = CSNK1D (Homo sapiens, UniProt P48730)
YSK1 = YSK1 (Homo sapiens, UniProt O00506)
PAK2 = PAK2 (Homo sapiens, UniProt Q13177)
RET (M918T) = RET (M918T) (Homo sapiens, UniProt P07949, M918T)
TAOK1 = TAOK1 (Homo sapiens, UniProt Q7L7X3)
FLT3-autoinhibited = FLT3-autoinhibited (Homo sapiens, UniProt P36888)
ROCK1 = ROCK1 (Homo sapiens, UniProt Q13464)
AKT3 = AKT3 (Homo sapiens, UniProt Q9Y243)
[3] = biological target: ABL1 (F317L)-nonphosphorylated (Homo sapiens, UniProt P00519, F317L)
IKK-beta = IKK-beta (Homo sapiens, UniProt O14920)
KIT (L576P) = KIT (L576P) (Homo sapiens, UniProt P10721, L576P)
EGFR = EGFR (Homo sapiens, UniProt P00533)
PIK3CA (C420R) = PIK3CA (C420R) (Homo sapiens, UniProt P42336, C420R)
Sequence of PIK3CA (C420R) (P42336 whole entry C420R): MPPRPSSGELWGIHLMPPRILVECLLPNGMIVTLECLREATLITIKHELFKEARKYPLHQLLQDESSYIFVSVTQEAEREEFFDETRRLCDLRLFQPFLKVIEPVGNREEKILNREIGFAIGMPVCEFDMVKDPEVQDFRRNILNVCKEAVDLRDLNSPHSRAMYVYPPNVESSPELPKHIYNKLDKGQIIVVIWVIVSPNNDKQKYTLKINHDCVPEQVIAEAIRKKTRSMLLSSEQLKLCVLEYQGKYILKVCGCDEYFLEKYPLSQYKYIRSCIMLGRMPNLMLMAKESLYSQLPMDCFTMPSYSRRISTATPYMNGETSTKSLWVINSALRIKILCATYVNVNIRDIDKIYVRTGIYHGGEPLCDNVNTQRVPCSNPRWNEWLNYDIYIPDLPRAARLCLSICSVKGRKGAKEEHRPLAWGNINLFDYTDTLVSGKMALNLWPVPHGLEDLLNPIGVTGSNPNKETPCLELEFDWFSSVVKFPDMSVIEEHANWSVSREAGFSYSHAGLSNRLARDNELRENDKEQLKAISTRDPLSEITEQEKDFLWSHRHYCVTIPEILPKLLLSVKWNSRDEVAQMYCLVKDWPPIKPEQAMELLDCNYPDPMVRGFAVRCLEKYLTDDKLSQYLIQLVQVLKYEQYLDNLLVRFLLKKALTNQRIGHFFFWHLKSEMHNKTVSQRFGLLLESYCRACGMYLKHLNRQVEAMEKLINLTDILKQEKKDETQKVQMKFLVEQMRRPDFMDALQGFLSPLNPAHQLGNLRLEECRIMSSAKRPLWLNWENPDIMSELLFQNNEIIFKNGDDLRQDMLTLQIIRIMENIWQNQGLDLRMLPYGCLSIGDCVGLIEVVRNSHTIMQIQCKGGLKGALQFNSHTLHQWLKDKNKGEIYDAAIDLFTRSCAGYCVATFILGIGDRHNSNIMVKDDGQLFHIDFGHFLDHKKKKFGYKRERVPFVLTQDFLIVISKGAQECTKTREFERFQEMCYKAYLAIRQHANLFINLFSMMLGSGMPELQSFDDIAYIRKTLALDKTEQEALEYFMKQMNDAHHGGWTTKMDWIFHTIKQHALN

Sequence of EIF2AK1 (Q9BQI3 whole entry): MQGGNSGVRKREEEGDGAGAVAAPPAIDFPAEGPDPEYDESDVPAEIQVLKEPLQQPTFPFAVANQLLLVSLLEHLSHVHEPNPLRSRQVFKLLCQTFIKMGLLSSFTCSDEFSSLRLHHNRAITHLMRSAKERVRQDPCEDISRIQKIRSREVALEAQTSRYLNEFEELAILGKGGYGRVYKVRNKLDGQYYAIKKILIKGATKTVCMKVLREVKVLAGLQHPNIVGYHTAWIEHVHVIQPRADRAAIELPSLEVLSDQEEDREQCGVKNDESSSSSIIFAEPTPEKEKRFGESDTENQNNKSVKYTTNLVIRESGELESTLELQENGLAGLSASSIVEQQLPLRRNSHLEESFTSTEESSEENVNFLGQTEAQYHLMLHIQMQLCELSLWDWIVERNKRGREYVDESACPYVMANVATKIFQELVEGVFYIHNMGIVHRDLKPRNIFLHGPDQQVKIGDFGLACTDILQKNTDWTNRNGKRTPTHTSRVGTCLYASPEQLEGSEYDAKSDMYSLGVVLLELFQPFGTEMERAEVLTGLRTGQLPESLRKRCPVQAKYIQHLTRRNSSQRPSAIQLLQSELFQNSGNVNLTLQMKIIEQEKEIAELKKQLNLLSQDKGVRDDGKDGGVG
T4 sequence (Q13163 whole entry, the tested form may be a part): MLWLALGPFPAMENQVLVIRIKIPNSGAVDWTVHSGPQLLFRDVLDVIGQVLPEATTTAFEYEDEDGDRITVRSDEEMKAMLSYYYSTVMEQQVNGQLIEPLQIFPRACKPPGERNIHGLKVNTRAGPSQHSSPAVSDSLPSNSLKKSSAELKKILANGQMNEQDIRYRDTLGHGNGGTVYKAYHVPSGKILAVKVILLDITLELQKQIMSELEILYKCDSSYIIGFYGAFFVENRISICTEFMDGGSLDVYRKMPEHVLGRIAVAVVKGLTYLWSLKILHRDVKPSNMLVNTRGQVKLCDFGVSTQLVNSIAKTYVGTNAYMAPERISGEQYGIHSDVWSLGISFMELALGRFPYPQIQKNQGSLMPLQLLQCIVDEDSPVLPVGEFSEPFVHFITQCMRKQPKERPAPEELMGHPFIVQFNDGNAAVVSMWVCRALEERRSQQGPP
Sequence of PKMYT1 (Q99640 whole entry): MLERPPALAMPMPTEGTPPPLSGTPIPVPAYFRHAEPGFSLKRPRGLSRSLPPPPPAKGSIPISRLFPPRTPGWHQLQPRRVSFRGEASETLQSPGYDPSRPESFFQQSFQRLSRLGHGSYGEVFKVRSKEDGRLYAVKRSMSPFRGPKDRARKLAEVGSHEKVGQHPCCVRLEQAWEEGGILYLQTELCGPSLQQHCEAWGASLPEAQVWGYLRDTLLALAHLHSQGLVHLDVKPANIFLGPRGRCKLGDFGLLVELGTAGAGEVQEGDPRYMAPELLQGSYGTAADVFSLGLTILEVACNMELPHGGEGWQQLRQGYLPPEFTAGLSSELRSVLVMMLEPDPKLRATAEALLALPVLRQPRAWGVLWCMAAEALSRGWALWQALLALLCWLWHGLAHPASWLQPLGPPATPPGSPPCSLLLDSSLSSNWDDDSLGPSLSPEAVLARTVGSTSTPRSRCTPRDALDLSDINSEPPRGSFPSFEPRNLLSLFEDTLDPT
Sequence of IGF1R (P08069 31-1367): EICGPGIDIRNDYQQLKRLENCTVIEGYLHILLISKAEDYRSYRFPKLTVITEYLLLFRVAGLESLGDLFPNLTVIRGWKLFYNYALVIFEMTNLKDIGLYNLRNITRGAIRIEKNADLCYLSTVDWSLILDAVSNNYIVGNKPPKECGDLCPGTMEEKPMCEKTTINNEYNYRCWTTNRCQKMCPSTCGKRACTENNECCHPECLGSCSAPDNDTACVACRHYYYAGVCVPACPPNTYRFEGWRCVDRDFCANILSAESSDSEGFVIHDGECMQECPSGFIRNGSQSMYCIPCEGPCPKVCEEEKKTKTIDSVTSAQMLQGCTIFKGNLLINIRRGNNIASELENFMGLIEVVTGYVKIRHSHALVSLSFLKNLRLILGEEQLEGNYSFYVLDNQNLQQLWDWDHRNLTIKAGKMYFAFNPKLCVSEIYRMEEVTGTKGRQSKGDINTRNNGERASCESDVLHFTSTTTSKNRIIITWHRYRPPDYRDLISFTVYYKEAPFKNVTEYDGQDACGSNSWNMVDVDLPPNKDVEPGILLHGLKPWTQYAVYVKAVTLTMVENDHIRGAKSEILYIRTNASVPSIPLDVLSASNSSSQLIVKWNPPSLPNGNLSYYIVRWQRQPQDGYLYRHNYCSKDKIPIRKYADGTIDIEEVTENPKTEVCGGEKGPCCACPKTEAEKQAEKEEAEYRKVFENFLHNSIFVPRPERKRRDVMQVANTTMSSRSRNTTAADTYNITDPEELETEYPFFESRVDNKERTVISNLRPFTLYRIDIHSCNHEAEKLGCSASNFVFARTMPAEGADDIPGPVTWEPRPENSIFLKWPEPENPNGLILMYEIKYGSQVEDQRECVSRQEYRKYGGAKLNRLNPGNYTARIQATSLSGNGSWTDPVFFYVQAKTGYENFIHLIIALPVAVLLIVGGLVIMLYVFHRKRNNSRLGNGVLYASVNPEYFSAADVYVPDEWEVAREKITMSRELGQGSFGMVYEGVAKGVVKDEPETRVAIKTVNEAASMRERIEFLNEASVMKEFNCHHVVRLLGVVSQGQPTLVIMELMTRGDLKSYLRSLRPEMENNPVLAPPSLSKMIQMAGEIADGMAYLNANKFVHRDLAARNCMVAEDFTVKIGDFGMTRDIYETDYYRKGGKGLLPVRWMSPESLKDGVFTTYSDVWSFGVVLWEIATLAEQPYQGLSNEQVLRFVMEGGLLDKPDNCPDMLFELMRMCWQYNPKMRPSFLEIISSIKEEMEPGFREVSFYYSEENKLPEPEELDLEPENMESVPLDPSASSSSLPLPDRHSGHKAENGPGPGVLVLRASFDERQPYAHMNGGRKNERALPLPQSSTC
Sequence of YSK1 (O00506 whole entry): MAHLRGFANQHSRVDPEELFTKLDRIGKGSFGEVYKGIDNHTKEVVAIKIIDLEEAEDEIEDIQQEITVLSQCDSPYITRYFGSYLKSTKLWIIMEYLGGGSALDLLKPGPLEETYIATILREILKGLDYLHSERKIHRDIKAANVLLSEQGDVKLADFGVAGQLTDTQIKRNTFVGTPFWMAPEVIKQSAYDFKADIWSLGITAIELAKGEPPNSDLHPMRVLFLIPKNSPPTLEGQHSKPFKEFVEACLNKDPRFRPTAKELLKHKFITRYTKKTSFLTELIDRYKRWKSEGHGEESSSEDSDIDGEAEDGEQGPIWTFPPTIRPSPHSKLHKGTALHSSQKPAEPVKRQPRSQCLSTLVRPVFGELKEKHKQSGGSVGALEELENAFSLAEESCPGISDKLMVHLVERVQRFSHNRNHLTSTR
Sequence of BLK (P51451 whole entry): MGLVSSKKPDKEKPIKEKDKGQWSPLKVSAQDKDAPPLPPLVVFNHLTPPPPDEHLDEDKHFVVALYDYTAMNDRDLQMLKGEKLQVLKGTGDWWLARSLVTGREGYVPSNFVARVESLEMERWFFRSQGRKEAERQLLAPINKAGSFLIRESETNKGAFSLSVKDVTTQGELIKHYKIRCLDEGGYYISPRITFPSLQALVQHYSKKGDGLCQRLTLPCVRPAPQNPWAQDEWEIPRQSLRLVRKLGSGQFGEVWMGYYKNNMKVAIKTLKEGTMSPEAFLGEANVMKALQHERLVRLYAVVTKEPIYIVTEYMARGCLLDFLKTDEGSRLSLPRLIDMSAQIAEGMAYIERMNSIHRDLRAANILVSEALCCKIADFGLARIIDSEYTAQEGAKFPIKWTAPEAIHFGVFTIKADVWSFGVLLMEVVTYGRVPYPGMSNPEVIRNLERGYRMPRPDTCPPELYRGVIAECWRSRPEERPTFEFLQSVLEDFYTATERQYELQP
Sequence of PIK3CA (M1043I) (P42336 whole entry M1043I): as the sequence (P42336 whole entry C420R) above, with R420C, M1043I counted along it

With `Cc1cc(Oc2cc(NC(=O)C3CC3)ncn2)ccc1NC(=O)Nc1ccc(Cl)c(C(F)(F)F)c1` [CBT-102] the remaining activity at 1 µM [1] was 6%, the remaining activity at 1 µM (MAP3K4) was 100% and the remaining activity at 1 µM (DYRK1B) was 100%. The remaining activity at 1 µM (FGFR4) was 92%, the remaining activity at 1 µM (QSK) was 91% and the remaining activity at 1 µM (MINK) was 35%. For the same compound, the remaining activity at 1 µM (MET (Y1235D)) was 79%, the remaining activity at 1 µM (MKK7) was 66% and the remaining activity at 1 µM (ERBB3) was 100%. For the same compound, the remaining activity at 1 µM (MEK5) was 6.2%, the remaining activity at 1 µM (HIPK1) was 96% and the remaining activity at 1 µM (EIF2AK1) was 99%. For the same compound, the remaining activity at 1 µM (MAK) was 62%, the remaining activity at 1 µM (CAMK1) was 74% and the remaining activity at 1 µM (PKMYT1) was 97%. It also gave a remaining activity at 1 µM (BLK) of 48%, a remaining activity at 1 µM [2] of 100% and a remaining activity at 1 µM (CAMK1D) of 81%. For the same compound, the remaining activity at 1 µM (CAMK1B) was 98%, the remaining activity at 1 µM (EPHA1) was 45% and the remaining activity at 1 µM (SBK1) was 92%. It also gave a remaining activity at 1 µM (S6K1) of 99%, a remaining activity at 1 µM (IGF1R) of 95% and a remaining activity at 1 µM (PIK3CA (M1043I)) of 100%. For the same compound, the remaining activity at 1 µM (AMPK-alpha1) was 98%, the remaining activity at 1 µM (PDGFRB) was 0% and the remaining activity at 1 µM (CSNK1D) was 77%. The remaining activity at 1 µM (YSK1) was 100%, the remaining activity at 1 µM (PAK2) was 94% and the remaining activity at 1 µM (RET (M918T)) was 0.1%. For the same compound, the remaining activity at 1 µM (TAOK1) was 49%, the remaining activity at 1 µM (FLT3-autoinhibited) was 90% and the remaining activity at 1 µM (ROCK1) was 100%. The remaining activity at 1 µM (AKT3) was 97%, the remaining activity at 1 µM [3] was 16% and the remaining activity at 1 µM (IKK-beta) was 92%. The remaining activity at 1 µM (KIT (L576P)) was 0%, the remaining activity at 1 µM (EGFR) was 76% and the remaining activity at 1 µM (PIK3CA (C420R)) was 100%.
